In US20240207286A1, “ASBT INHIBITORS IN THE TREATMENT OF RENAL DISEASES” (Albireo AB, priority 2022, published 2024):
pIC50: −log10 of the molar value. Values belong to the compound of their own block, whether it stands above or below them.

Tests used:
[1] = Caco-2 permeability; format: in vitro ADME; settings: human; for Papp A→B: A2B; for Papp B→A: B2A
From the text: Some ASBT inhibitors may show improved or optimal permeability. The permeability may be measured in Caco2 cells, and values are given as Papp (apparent permeability) values in cm/s. In some embodiments, the permeability is between about 0.01×10^−6 cm/s and about 50×10^−6 cm/s, such as between about 0.05×10^−6 cm/s and about 40×10^−6 cm/s, or such as between about 0.1×10^−6 cm/s and about 30×10^−6 cm/s. In some embodiments, the permeability is greater than at least about 0.1×10^−6 cm/s, such as greater than about 0.2×10^−6 cm/s, such as greater than about 0.4×10^−6 cm/s, such as greater than about 0.7×10^−6 cm/s, such as greater than about 1.0×10^−6 cm/s, such as greater than about 2×10^−6 cm/s, such as greater than about 3×10^−6 cm/s, such as greater than about 5×10^−6 cm/s, such as greater than about 7×10^−6 cm/s, such as greater than about 10×10^−6 cm/s, such as greater than about 15×10^−6 cm/s.
(§1) ASBT inhibitor compounds 1 to 5 were used in the experiments described herein. Values were determined using the assays described in e.g. WO 2020/161217.

[2] = tested on: BDL mice; experiment: Comparison of ASBT inhibitors in BDL mice, 19 days treatment (Example 5); format: in vivo, mice (C57BL/6n); settings: male BDL mice; for serum bile acids / urine bile acids: p.o. once daily for 19 days, Compound 1 60 mg/kg, Compound 2 3 and 10 mg/kg; for urinary NGAL: p.o. once daily, after treatment for 18 days
Description: Male mice (C57BL/6n) were used. After completion of quarantine and acclimatization period, animals were randomized based on body weight into experimental groups (n=12 mice per bile duct ligation group along with 5 sham operated controls). On day 0, animals underwent bile duct ligation or sham surgery. The ASBT inhibitors were administered p.o. once daily. The animals were weighed every day. At day 21, blood samples were taken 2 and 6 hours after the final dose. At day 24, animals were sacrificed and samples (urine and blood; liver, kidney, heart and spleen tissues) were collected and analysed.

[3] = Bioavailability in mice; settings: C57BL/6, mouse, in vivo
Description: as §1

[4] = target: T1, hIBAT (Homo sapiens, UniProt Q12908); experiment: hIBAT potency (IC50); format: cell-based
T1 sequence (Q12908 1-348): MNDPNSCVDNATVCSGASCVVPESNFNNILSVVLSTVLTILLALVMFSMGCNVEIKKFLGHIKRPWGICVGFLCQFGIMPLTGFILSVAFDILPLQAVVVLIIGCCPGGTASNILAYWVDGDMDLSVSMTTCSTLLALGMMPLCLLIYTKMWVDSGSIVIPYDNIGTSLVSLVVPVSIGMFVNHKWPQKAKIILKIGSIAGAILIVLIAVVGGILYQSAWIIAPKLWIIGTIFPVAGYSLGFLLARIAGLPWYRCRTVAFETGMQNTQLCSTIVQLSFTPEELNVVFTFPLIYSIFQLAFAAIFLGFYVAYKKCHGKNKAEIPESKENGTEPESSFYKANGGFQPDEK
Description: as §1

[5] = tested on: BDL mice; experiment: Therapeutic time window in BDL mice, 28 days treatment (Example 4); format: in vivo, mice (C57BL/6n); settings: 60 mg/kg p.o. twice daily for 28 days
Description: The effect of the time period before start of treatment with Compound 1 on kidney injury in BDL mice was evaluated.
Male mice (C57BL/6n) were used. After completion of quarantine and acclimatization period, animals were randomized based on body weight into experimental groups (n=7 mice per group). On day 0, animals underwent bile duct ligation or sham surgery. From day 3, 21, 42 or 63, animals were treated for 28 days with either vehicle or with Compound 1 at a dose of 60 mg/kg, as shown in Table 4 below. Compound 1 was administered p.o. twice per day. The animals were weighed every day. Blood, urine, bile and tissue samples were collected at the end of the experiment.

[6] = tested on: BDL mice; experiment: Short-term effect of ASBT inhibition on urinary bile acid excretion in BDL mice (Example 2); format: in vivo, mice (C57BL/6n); settings: female BDL mice; 15, 30, 60 or 120 mg/kg p.o. twice daily for 5 days (day 7-11); all treated groups
Description: The short-term effect of oral administration of Compound 1 to BDL mice on the urinary excretion of bile acids was evaluated.
Female mice (C57BL/6n) were used. After completion of quarantine and acclimatization period, animals were randomized based on body weight into experimental groups (n=4-7 mice in each). On day 0, animals underwent bile duct ligation. Compound 1 was administered orally by gavage twice per day. Spontaneous urine samples were collected before BDL and on days 7, 8, 9, 10, 11 and 12 after BDL by cannulation of the urinary bladder, and the concentration of bile acids in urine was determined.

[7] = tested on: BDL mice; experiment: Long-term effect on cholemic nephropathy in bile duct ligated mice, 6 weeks (Example 3); format: in vivo, mice (C57BL/6n)
Description: The long-term effect of Compound 1 on kidney injury in BDL mice was studied by histology, clinical chemistry and intravital imaging.
[…] […] On day 0, animals underwent bile duct ligation or sham surgery. Compound 1 was administered orally by gavage twice per day. Spontaneous urine samples were collected before BDL as well as on day 1 and weeks 1, 2, 3, 4, 5, and 6 after BDL by cannulation of the urinary bladder. Blood, urine, bile and tissue samples were collected at the end (week 6) of the experiment.

[8] = tested on: BDL mice; experiment: Comparison of ASBT inhibitors in BDL mice, 5 days treatment (Example 6); format: in vivo, mice (C57BL/6n); settings: male BDL mice; 10 mg/kg p.o. once daily for 5 days
Description: Male mice (C57BL/6n) were used. After completion of quarantine and acclimatization period, animals were randomized based on body weight into experimental groups (n=10 mice per bile duct ligation group). On day 1, animals underwent bile duct ligation. The ASBT inhibitors were administered p.o. once daily. The animals were weighed every day. At day 6, animals were moved to individual cages for cumulative overnight fecal collection (day 6 to 7). At day 8, blood samples were taken 2 and 6 hours after the final dose. Animals were then sacrificed and samples (urine and blood; liver, kidney and ileum tissues) were collected and analysed.

[9] = in vivo; cited from earlier work
[10] = male BDL mice, dosing started on Day 3
[11] = female BDL mice, 60 mg/kg p.o. twice daily for 6 weeks

Papp A→B [1]: 29.3 ×10⁻⁶ cm/s
Papp B→A [1]: 25.3 ×10⁻⁶ cm/s
SMILES: CCCCC1(C)CN(c2ccccc2)c2cc(SC)c(CSCC(=O)O)cc2S(=O)(=O)C1 (stereo not shown) [Compound 3, 2-(((3-butyl-3-methyl-7-(methylthio)-1,1-dioxido-5-phenyl-2,3,4,5-tetrahydro-1,5-benzothiazepin-8-yl)methyl)thio)acetic acid]

Papp A→B [1]: 9.2 ×10⁻⁶ cm/s
Papp B→A [1]: 0.9 ×10⁻⁶ cm/s
SMILES: CCCCC1(CCCC)CN(c2ccccc2)c2cc(SC)c(OCCC(=O)O)cc2S(=O)(=O)N1 [Compound 2, 3-((3,3-dibutyl-7-(methylthio)-1,1-dioxido-5-phenyl-2,3,4,5-tetrahydro-1,2,5-benzothiadiazepin-8-yl)oxy)propanoic acid]
serum bile acids [2]: lower serum bile acids
urine bile acids [2]: increase urine bile acids
urinary NGAL [2]: lowered urinary NGAL

SMILES: CCCCC1(CC)CN(c2ccccc2)c2cc(SC)c(O/C=C(\F)C(=O)O)cc2S(=O)(=O)C1 (stereo not shown) [Compound 1, (Z)-3-((3-butyl-3-ethyl-7-(methylthio)-1,1-dioxido-5-phenyl-2,3,4,5-tetrahydro-1,5-benzothiazepin-8-yl)oxy)-2-fluoroacrylic acid]
bioavailability [3]: 44%
serum bile acids [2]: lower serum bile acids
urine bile acids [2]: increase urine bile acids
urinary NGAL [2]: lowered urinary NGAL
pIC50 [4]: 7.68
body weight loss ([5]; dosing started on Day 21): reversed body weight loss
renal injury ([5]; dosing started on Day 21): almost completely reversed
body weight loss ([5]; dosing started on Day 42): reversed body weight loss
renal injury ([5]; dosing started on Day 42): partially reversed
effect on renal injury and body weight loss ([5]; dosing started on Day 63): minimal effects
body weight loss [5, 10]: reversed body weight loss
renal injury [5, 10]: completely prevented
concentrations of bile acids in urine, fold higher after treatment [6]: at least 20 fold
body weight loss due to BDL [7, 11]: strongly ameliorated
severe fibrosis and cystic dilatation of renal tubules (histology) [7, 11]: antagonized by Compound 1 almost to the levels of control animals without BDL
urinary BA [7, 11]: massively increased
urinary KIM-1 [7, 11]: strongly reduced
urinary NGAL [7, 11]: strongly reduced
vascular leakage in kidneys (intravital imaging with Evans blue) [7, 11]: completely reversed
mortality in the 6 week-period ([7]; female BDL mice, 60 mg/kg p.o. twice daily, about 50% died in BDL-vehicle group): no mortality
therapeutic efficacy in similarly designed study with male mice ([7]; male mice, 6 per group): confirmed the therapeutic efficacy
decrease of serum BA ([7]; po, 60 mg/kg, 1008 h): about 90%

pIC50 [4]: 8.62
Papp A→B [1]: 8.7 ×10⁻⁶ cm/s
Papp B→A [1]: 12.9 ×10⁻⁶ cm/s
SMILES: CCCCC1(CC)CN(c2ccc(F)cc2)c2cc(SC)c(OCC(=O)O)cc2S(=O)(=O)C1 (stereo not shown) [Compound 5, 2-((3-butyl-3-ethyl-5-(4-fluorophenyl)-7-(methylthio)-1,1-dioxido-2,3,4,5-tetrahydro-1,5-benzothiazepin-8-yl)oxy)acetic acid]
urinary NGAL [8]: significantly reduced

SMILES: CCCCC1(CCCC)CS(=O)(=O)c2ccc(N(C)C)cc2[C@@H](c2ccc(OCc3ccc(C[N+]45CCN(CC4)CC5)cc3)cc2)[C@H]1O.[Cl-] [maralixibat, 1-{[4-({4-[(4R,5R)-3,3-dibutyl-7-(dimethylamino)-4-hydroxy-1,1-dioxo-2,3,4,5-tetrahydro-1H-1λ^6-benzothiepin-5-yl]phenoxy}methyl)phenyl]methyl}-1,4-diazabicyclo[2.2.2]octan-1-ium chloride]
systemic absorption following oral administration [9]: less than 10%
